{"source": "patent US20130253179A1", "about": "“Functionalization Processes and Reactants Used in Such Processes Using an Isatoic Anhydride or a Derivative Thereof, Biological Molecules Thus Treated and Kits” (priority 2010, published 2013)", "system": "HIV WT transcript", "test": "NASBA amplification of functionalised, captured and eluted HIV transcripts", "assay_type": "biochemical", "protocol": "In the preceding example 12, 4 μg of a WT HIV transcript (1083 nucleotides, internal production, bioMérieux batch 841470301, C=3.27E12 copies μl) was biotinylated with different concentrations of the compound (24) (0 mM, 15 mM, 30 mM, 120 mM, 180 mM, i.e. the experiments #1-7 of Table 6). This transcript was then captured on Merck MagPrep 25 Streptavidin magnetic particles, then, after rinsing, the particles were subjected to a 100 mM DTT treatment in PBS 1x pH 7 at 40° C. for one hour, in order to cleave the disulfide bond (SS) and elute the transcripts with —SH anthranilate groups, as shown in FIG. 16. We evaluated the ability of these transcripts to be amplified by the NASBA technology. This evaluation was performed as a comparison with an unfunctionalised “bare” HIV_WT transcript range.\nThe amplification is performed on a NucliSENS EasyQ instrument (bioMérieux, Lyon, France) and with a NucliSENS EasyQ HIV-1 V2.0 kit (bioMérieux, Lyon, France, ref. 285033, batch 09122106). The software used is NucliSENS EasyQ Director, and the protocol is QL1-60 1.0 (bioMérieux, Lyon, France).\nAfter functionalisation with compound 24, capture and elution in 8 μL of 100 mM DTT, as described in example 12, the transcripts of experiments #2-5 from Table 7 were assayed on RNA 6000 NANO chip with the AGILENT bioanalyzer (Santa Clara, USA), and were diluted in the following concentrations: 1000 copies, 100 copies, 50 copies, 10 copies, 1 copy, 0 copies in 15 μl. An HIV IC transcript (internal control of the same amplified sequence as the WT (wild type) transcript, but detected by a molecular beacon carrying another fluorophore) diluted to 360 copies is added to the 15 μl volume, and will be present in all of the wells in which the amplifications occur. This transcript serves to monitor the correct operation of the amplification. The tests are carried out in triplicate.\nSix Accuspheres ENZ II (NucliSENS EasyQ HIV-1 V2.0 kit, ref. 285033, bioMérieux, Lyon, France) are deposited into a 1.5 ml polypropylene tube. A volume of 270 μL of ENZdil H (NucliSENS EasyQ HIV-1 V2.0 kit, ref. 285033, bioMérieux, Lyon, France) is added onto the Accuspheres, and 15 minutes are allowed to pass, for them to dissolve completely. The twelve Accuspheres PRM H (NucliSENS EasyQ HIV-1 V2.0 kit, ref. 285033, bioMérieux, Lyon, France) are deposited into a 1.5 ml polypropylene tube 1080 μL of PRMdi l H (NucliSENS EasyQ HIV-1 V2.0 kit, ref. 285033, bioMérieux, Lyon, France) is added onto these Accuspheres and the mixture is immediately vortex stirred until the Accuspheres dissolve completely. After complete dissolution in the two tubes (mix ENZ II and mix PRM H), these mixtures are centrifuged with a benchtop centrifuge. […]"}
{"smiles": "Cn1c(=O)oc(=O)c2cc(NC(=O)CCSSCCNC(=O)CCOCCOCCOCCOCCNC(=O)CCCCC3SCC4NC(=O)NC43)ccc21", "note": "(stereo not shown) [5Biot PEG4 SS IA Me 24]", "values": [{"measurement": "Minimum number of copies detected", "setting": "15 mM functionalisation reagent", "value": 10, "unit": "copies"}, {"measurement": "Minimum number of copies detected", "setting": "30 mM functionalisation reagent", "value": 10, "unit": "copies"}, {"measurement": "Minimum number of copies detected", "setting": "120 mM functionalisation reagent", "value": 100, "unit": "copies"}, {"measurement": "Minimum number of copies detected", "setting": "180 mM functionalisation reagent", "value": 1000, "unit": "copies"}]}
